PMC8704648 (Pharmaceutics, 2021)

Conditions: TG, oxidizing atmosphere

Tonset, the onset of the thermal degradation: 249.9 °C
Compound: COc1ccc2cc([C@H](C)C(=O)O)ccc2c1 [Naproxen, (+)-(S)-2-(6-Methoxynaphthalen-2-yl)propanoic acid]
